{
  "source": "ChEMBL document CHEMBL6177998",
  "about": "“Rational Design of Dual Degraders by Incorporating Molecular Glue Structural Features into PROTAC Degraders” (J Med Chem, 2025)",
  "key": {"[1]": {"biological_target": "T1, Protein cereblon/Eukaryotic peptide chain release factor GTP-binding subunit ERF3A (Homo sapiens, UniProt Q96SW2+P15170)", "experiment": "Molecular glue activity at CRBN/GSPT1 in human VCaP cells assessed as induction of GSPT1 degradation at 50 nM preincubated with MLN4924 followed by compound addition and measured after 12 hrs by Western blot analysis", "format": "cell-based"}, "[2]": {"test_system": "Protein cereblon/Androgen receptor (Homo sapiens), P10275+Q96SW2 [UNDEFINED MUTATION]", "sequence (P10275 whole entry, looked up, change not shown, canonical isoform)": "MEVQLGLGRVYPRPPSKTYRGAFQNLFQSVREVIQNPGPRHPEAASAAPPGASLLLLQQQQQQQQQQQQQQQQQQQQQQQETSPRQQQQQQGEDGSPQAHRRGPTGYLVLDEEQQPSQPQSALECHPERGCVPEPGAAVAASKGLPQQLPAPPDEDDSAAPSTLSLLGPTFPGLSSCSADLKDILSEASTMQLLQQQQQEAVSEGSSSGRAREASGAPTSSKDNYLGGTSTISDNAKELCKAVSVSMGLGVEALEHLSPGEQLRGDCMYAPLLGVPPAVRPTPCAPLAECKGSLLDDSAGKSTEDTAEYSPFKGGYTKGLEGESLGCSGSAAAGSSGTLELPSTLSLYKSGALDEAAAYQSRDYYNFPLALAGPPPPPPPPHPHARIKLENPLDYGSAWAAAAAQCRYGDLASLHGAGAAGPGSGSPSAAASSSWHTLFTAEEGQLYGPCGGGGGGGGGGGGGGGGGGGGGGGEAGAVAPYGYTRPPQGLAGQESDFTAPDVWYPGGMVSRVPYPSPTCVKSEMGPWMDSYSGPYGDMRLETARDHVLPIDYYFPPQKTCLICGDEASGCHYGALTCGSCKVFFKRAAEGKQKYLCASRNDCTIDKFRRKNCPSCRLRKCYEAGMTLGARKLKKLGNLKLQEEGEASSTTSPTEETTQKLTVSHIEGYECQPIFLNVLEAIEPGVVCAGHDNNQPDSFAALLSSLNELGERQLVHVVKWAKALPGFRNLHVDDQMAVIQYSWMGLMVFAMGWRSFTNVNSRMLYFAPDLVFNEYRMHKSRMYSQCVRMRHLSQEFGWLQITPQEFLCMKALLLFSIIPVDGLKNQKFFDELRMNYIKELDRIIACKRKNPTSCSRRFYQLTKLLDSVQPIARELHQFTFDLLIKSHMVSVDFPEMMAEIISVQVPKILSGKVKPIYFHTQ", "sequence (Q96SW2 whole entry, looked up, change not shown, canonical isoform)": "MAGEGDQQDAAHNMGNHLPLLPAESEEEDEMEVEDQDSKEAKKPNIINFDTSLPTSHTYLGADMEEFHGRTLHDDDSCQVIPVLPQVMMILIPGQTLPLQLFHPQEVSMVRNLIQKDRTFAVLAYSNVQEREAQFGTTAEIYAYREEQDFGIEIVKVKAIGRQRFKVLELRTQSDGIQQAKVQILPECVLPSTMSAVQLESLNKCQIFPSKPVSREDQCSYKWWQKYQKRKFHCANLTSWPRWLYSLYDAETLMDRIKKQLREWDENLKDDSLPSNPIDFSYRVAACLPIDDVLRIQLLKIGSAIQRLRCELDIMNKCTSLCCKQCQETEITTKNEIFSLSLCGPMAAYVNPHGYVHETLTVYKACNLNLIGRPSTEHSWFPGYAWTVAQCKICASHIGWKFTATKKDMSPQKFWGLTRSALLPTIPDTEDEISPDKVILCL", "experiment": "PROTAC activity at CRBN/Androgen receptor splice variant 7 in human 22Rv1 cells assessed as induction of AR-V7 degradation at 20 nM incubated for 12 hrs by Western blot analysis (reference value: 0%)", "format": "cell-based"}, "[3]": {"test_system": "Protein cereblon/Androgen receptor (Homo sapiens), P10275+Q96SW2 [UNDEFINED MUTATION]", "experiment": "PROTAC activity at CRBN/Androgen receptor splice variant 7 in human 22Rv1 cells assessed as induction of AR-V7 degradation at 50 nM preincubated with MLN4924 followed by compound addition and measured after 12 hrs by Western blot analysis", "format": "cell-based"}, "Androgen receptor": {"biological_target": "Androgen receptor (Homo sapiens, UniProt P10275, F877L)", "sequence (P10275 whole entry F877L)": "as the sequence (P10275 whole entry, looked up, change not shown, canonical isoform) above, with F877L counted along it", "experiment": "Inhibition of AR F876L mutant (unknown origin) transcriptional activity transfected in HEK293T cells co-transfected with PSA-luciferase reporter and pRL-TK assessed as reduction in PSA-luciferase activity incubated for 24 hrs by luminescence based microplate reader analysis", "format": "cell-based"}, "[4]": {"biological_target": "T1, Protein cereblon/Eukaryotic peptide chain release factor GTP-binding subunit ERF3A", "experiment": "Molecular glue activity at CRBN/GSPT1 in human 22Rv1 cells assessed as induction of GSPT1 degradation incubated for 24 hrs by Western blot analysis", "format": "cell-based"}, "22Rv1": {"test_system": "22Rv1", "experiment": "Induction of GSPT1 degradation in human 22Rv1 cells transfected with CRBN siRNA at 30 nM incubated for 24 hrs by Western blot analysis", "format": "cell-based"}, "CWR22R [5]": {"test_system": "CWR22R", "experiment": "Downregulation of CCNB1IP1 gene expression in human 22Rv1 cells at 3 nM incubated for 24 hrs by Volcano plot analysis", "format": "functional, cell-based"}, "[6]": {"biological_target": "T1, Protein cereblon/Eukaryotic peptide chain release factor GTP-binding subunit ERF3A", "experiment": "Molecular glue activity at CRBN/GSPT1 in human 22Rv1 cells assessed as induction of GSPT1 degradation by measuring maximal efficacy incubated for 24 hrs by Western blot analysis relative to control", "format": "cell-based"}, "[7]": {"biological_target": "T1, Protein cereblon/Eukaryotic peptide chain release factor GTP-binding subunit ERF3A", "experiment": "Molecular glue activity at CRBN/GSPT1 in human 22Rv1 cells assessed as induction of GSPT1 degradation at 20 nM incubated for 12 hrs by Western blot analysis (reference value: 0 %)", "format": "cell-based"}, "[8]": {"biological_target": "T1, Protein cereblon/Eukaryotic peptide chain release factor GTP-binding subunit ERF3A", "experiment": "In vivo molecular glue activity at CRBN/GSPT1 in male NOD SCID mouse model xenografted with human LNCaP cells assessed as reduction in GSPT1 level in tumor at 20 mg/kg, po administered daily for 26 days by Western blot analysis", "format": "functional, organism-based", "details": "time 26.0 day"}, "[9]": {"biological_target": "T1, Protein cereblon/Eukaryotic peptide chain release factor GTP-binding subunit ERF3A", "experiment": "Molecular glue activity at CRBN/GSPT1 in human 22Rv1 cells assessed as increase in GSPT1 polyubiquitination at 30 nM preincubated with compound for 12 hrs followed by MG132 addition and measured after 12 hrs by immunoprecipitation based Western blot analysis", "format": "cell-based", "details": "time 24.0 hrs"}, "[10]": {"experiment": "Antiproliferative activity against human Enzalutamide-resistant VCaP cells assessed as cell growth inhibition incubated for 72 hrs by Celltiter-lumi luminescent cell viability assay", "format": "functional, cell-based"}, "[11]": {"biological_target": "T2, Protein cereblon/Androgen receptor (Homo sapiens, UniProt P10275+Q96SW2)", "experiment": "PROTAC activity at CRBN/AR in human 22Rv1 cells assessed as induction of AR degradation incubated for 24 hrs by Western blot analysis", "format": "cell-based"}, "[12]": {"biological_target": "T1, Protein cereblon/Eukaryotic peptide chain release factor GTP-binding subunit ERF3A", "experiment": "Molecular glue activity at CRBN/GSPT1 in human 22Rv1 cells assessed as induction of GSPT1 degradation at 50 uM preincubated with thalidomide followed by compound addition and measured after 12 hrs by Western blot analysis", "format": "cell-based"}, "[13]": {"biological_target": "T1, Protein cereblon/Eukaryotic peptide chain release factor GTP-binding subunit ERF3A", "experiment": "Molecular glue activity at CRBN/GSPT1 in human LNCaP cells assessed as induction of GSPT1 degradation at 20 nM by Western blot analysis", "format": "cell-based", "details": "time 1-36 hrs"}, "[14]": {"biological_target": "T2, Protein cereblon/Androgen receptor", "experiment": "PROTAC activity at CRBN/AR in human 22Rv1 cells assessed as induction of AR degradation at 20 uM preincubated with EPI-002 for 4 hrs followed by compound addition and measured after 36 hrs by Western blot analysis", "format": "cell-based"}, "[15]": {"experiment": "Inhibition of AR W741L mutant (unknown origin) transcriptional activity transfected in HEK293T cells co-transfected with PSA-luciferase reporter and pRL-TK assessed as reduction in PSA-luciferase activity incubated for 24 hrs by luminescence based microplate reader analysis", "format": "cell-based, Homo sapiens"}, "[16]": {"biological_target": "T2, Protein cereblon/Androgen receptor", "experiment": "PROTAC activity at CRBN/AR in human 22Rv1 cells assessed as decrease in TMPRSS2 mRNA level at 1 to 3 nM incubated for 24 hrs by qRT-PCR analysis", "format": "cell-based", "details": "dose 1-3 nM"}, "[17]": {"biological_target": "T1, Protein cereblon/Eukaryotic peptide chain release factor GTP-binding subunit ERF3A", "experiment": "Molecular glue activity at CRBN/GSPT1 in human VCaP cells assessed as induction of GSPT1 degradation at 50 nM preincubated with MG132 followed by compound addition and measured after 12 hrs by Western blot analysis", "format": "cell-based"}, "[18]": {"biological_target": "T2, Protein cereblon/Androgen receptor", "experiment": "PROTAC activity at CRBN/AR in human 22Rv1 cells assessed as decrease in PSA protein level incubated for 24 hrs by Western blot analysis", "format": "cell-based", "details": "dose 1-10 nM"}, "[19]": {"biological_target": "T2, Protein cereblon/Androgen receptor", "experiment": "PROTAC activity at CRBN/AR in human 22Rv1 cells assessed as induction of AR degradation at 50 nM preincubated with MG132 followed by compound addition and measured after 12 hrs by Western blot analysis", "format": "cell-based"}, "[20]": {"biological_target": "T2, Protein cereblon/Androgen receptor", "experiment": "PROTAC activity at CRBN/AR in human 22Rv1 cells assessed as induction of AR degradation by measuring maximal efficacy incubated for 24 hrs by Western blot analysis relative to control", "format": "cell-based"}, "[21]": {"biological_target": "T1, Protein cereblon/Eukaryotic peptide chain release factor GTP-binding subunit ERF3A", "experiment": "Molecular glue activity at CRBN/GSPT1 in human 22Rv1 cells assessed as induction of GSPT1 degradation at 20 nM incubated for 1 hrs by Western blot analysis (reference value: 0 %)", "format": "cell-based"}, "[22]": {"test_system": "Protein cereblon/Androgen receptor (Homo sapiens), P10275+Q96SW2 [UNDEFINED MUTATION]", "experiment": "PROTAC activity at CRBN/Androgen receptor splice variant 7 in human 22Rv1 cells assessed as induction of AR-V7 degradation at 20 nM incubated for 36 hrs by Western blot analysis (reference value: 0%)", "format": "cell-based"}, "[23]": {"experiment": "Oral bioavailability in male ICR mouse at 10 mg/kg by LC-MS/MS analysis", "format": "ADME, organism-based", "details": "in vivo"}, "[24]": {"biological_target": "T1, Protein cereblon/Eukaryotic peptide chain release factor GTP-binding subunit ERF3A", "experiment": "Molecular glue activity at CRBN/GSPT1 in human 22Rv1 cells assessed as induction of GSPT1 degradation at 20 uM preincubated with EPI-002 for 4 hrs followed by compound addition and measured after 36 hrs by Western blot analysis", "format": "cell-based"}, "[25]": {"test_system": "Protein cereblon/Androgen receptor (Homo sapiens), P10275+Q96SW2 [UNDEFINED MUTATION]", "experiment": "Binding affinity to CRBN/AR-V7 in human 22Rv1 cells assessed as ternary complex formation incubated for 6 hrs by co-immunoprecipitation based Western blot analysis", "format": "cell-based"}, "[26]": {"biological_target": "Protein cereblon/Sal-like protein 4 (Homo sapiens) (UniProt Q96SW2+Q9UJQ4)", "sequence (Q96SW2 whole entry, looked up)": "as the sequence (Q96SW2 whole entry, looked up, change not shown, canonical isoform) above", "sequence (Q9UJQ4 whole entry, looked up)": "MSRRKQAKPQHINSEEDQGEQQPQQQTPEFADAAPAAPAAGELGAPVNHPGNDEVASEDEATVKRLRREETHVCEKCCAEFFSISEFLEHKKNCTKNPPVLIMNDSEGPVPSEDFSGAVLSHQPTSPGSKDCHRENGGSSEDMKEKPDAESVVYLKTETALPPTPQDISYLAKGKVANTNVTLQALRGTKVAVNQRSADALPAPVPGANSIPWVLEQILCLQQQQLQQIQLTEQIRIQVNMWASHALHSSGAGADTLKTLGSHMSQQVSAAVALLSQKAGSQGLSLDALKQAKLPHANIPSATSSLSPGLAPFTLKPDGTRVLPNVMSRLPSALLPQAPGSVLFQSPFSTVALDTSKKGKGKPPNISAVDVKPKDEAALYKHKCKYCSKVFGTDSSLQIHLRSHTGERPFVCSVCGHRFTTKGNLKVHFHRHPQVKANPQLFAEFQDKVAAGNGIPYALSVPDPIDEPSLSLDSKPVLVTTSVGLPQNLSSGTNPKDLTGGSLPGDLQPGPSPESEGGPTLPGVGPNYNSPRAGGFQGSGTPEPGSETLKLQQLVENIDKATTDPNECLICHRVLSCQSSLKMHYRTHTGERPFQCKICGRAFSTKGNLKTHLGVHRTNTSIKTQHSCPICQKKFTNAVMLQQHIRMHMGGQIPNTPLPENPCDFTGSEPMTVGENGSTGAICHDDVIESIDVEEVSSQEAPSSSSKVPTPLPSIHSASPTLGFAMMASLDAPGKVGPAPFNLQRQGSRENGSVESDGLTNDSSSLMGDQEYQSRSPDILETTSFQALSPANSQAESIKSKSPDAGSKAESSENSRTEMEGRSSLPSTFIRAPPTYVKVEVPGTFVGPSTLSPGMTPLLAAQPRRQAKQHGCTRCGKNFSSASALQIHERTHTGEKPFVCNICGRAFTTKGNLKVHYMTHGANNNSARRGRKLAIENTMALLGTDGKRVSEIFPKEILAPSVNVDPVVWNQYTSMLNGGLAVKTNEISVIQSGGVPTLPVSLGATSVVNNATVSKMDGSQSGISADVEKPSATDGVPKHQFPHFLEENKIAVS", "experiment": "Molecular glue activity at CRBN/SALL4 in human 22Rv1 cells assessed as induction of SALL4 degradation at 1 uM incubated for 6 hrs by Western blot analysis", "format": "cell-based"}, "CWR22R [27]": {"test_system": "CWR22R", "experiment": "Cell cycle arrest in human 22Rv1 cells assessed as accumulation of cells at G1 phase at 1 nM incubated for 24 hrs by flow cytometric analysis (reference value: 49.7 %)", "format": "functional"}, "[28]": {"biological_target": "T2, Protein cereblon/Androgen receptor", "experiment": "PROTAC activity at CRBN/AR in human VCaP cells assessed as induction of AR degradation at 20 nM by Western blot analysis", "format": "cell-based", "details": "time 1-36 hrs"}},
  "note": "Activity calls are given as the source filed them. The calls are words filed in the database; no cut-off is given here.",
  "data": [
    {"smiles": "COc1ccc(C(C)(C)c2cc(Cl)c(OCC3CCN(C(=O)CCCCCNc4ccc5c(c4)C(=O)N(C4CCC(=O)NC4=O)C5=O)CC3)c(C#N)c2)cc1", "note": "(configuration not stated)", "values": [
      {"measurement": "Activity", "setting": "[1]", "value": "inactive"},
      {"measurement": "Activity", "setting": "[2]", "value": 56.6, "unit": "%"},
      {"measurement": "Activity", "setting": "[3]", "value": "inactive"},
      {"measurement": "IC50", "setting": "Androgen receptor", "value": 48.6, "unit": "nM"},
      {"measurement": "Activity", "setting": "[4]", "value": "Dose-dependent-effect"},
      {"measurement": "DC50", "setting": "[4]", "value": 1.2, "unit": "nM"},
      {"measurement": "Activity", "setting": "22Rv1", "value": "inactive"},
      {"measurement": "Activity", "setting": "CWR22R [5]", "value": "Active"},
      {"measurement": "Emax", "setting": "[6]", "value": 94.2, "unit": "%"},
      {"measurement": "Activity", "setting": "[7]", "value": 98.7, "unit": "%"},
      {"measurement": "Activity", "setting": "[8]", "value": "Active"},
      {"measurement": "Activity", "setting": "[9]", "value": "Active"},
      {"measurement": "IC50", "setting": "[10]", "value": 6.99, "unit": "nM"},
      {"measurement": "Activity", "setting": "[11]", "value": "Dose-dependent-effect"},
      {"measurement": "DC50", "setting": "[11]", "value": 3.7, "unit": "nM"},
      {"measurement": "Activity", "setting": "[12]", "value": "inactive"},
      {"measurement": "Activity", "setting": "[13]", "value": "Time-dependent-effect"},
      {"measurement": "Activity", "setting": "[14]", "value": "inactive"},
      {"measurement": "IC50", "setting": "[15]", "value": 62.3, "unit": "nM"},
      {"measurement": "Activity", "setting": "[16]", "value": "Active"},
      {"measurement": "Activity", "setting": "[17]", "value": "inactive"},
      {"measurement": "Activity", "setting": "[18]", "value": "Dose-dependent-effect"},
      {"measurement": "Activity", "setting": "[19]", "value": "inactive"},
      {"measurement": "Emax", "setting": "[20]", "value": 90, "unit": "%"},
      {"measurement": "Activity", "setting": "[21]", "value": 21.8, "unit": "%"},
      {"measurement": "Activity", "setting": "[22]", "value": 98.3, "unit": "%"},
      {"measurement": "bioavailability", "setting": "[23]", "value": 11.2, "unit": "%"},
      {"measurement": "Activity", "setting": "[24]", "value": "Active"},
      {"measurement": "Activity", "setting": "[25]", "value": "Active"},
      {"measurement": "Activity", "setting": "[26]", "value": "inactive"},
      {"measurement": "Activity", "setting": "CWR22R [27]", "value": 50.3, "unit": "%"},
      {"measurement": "Activity", "setting": "[28]", "value": "Time-dependent-effect"}
    ]}
  ]
}
